How the values were obtained:
Experiment in all cases: relative viability (nuclei count vs DMSO), 5 days (fraction); higher = more cells survive
[1] = compound: O[C@H]1CC[C@H](Nc2ncc3nc(Nc4c(F)cc(F)cc4F)n([C@H]4CCOC4)c3n2)CC1 [Tanzisertib] + CCNC(=O)c1noc(-c2cc(C(C)C)c(O)cc2O)c1-c1ccc(CN2CCOCC2)cc1 [Luminespib] (partner 0.01 µM)
In short: (§1)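 Lung cancer cell lines were seeded in 1536-well plates and dosed by pin tool the next day, with either a single drug or a fixed anchor-drug dose combined with five library-drug doses (not always all listed) spaced in √10 steps. Five days later, one step fixed the cells and stained their nuclei (final 0.05% Triton X-100, 1% formaldehyde, 1 ug/ml Hoechst), and nuclei were counted on 4× images. Relative viability is the nuclei count in treated wells divided by the count in vehicle wells, and each value is the median of duplicate plates.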

[2] = compound: C1CNCCC1C2=CC(=NN2)C3=CC=NC=C3 + Nc1nc2[nH]cc(CCc3ccc(C(=O)N[C@@H](CCC(=O)O)C(=O)O)cc3)c2c(=O)[nH]1 [Pemetrexed] (partner 0.2 µM)
In short: as §1

[3] = compound: C[C@@H](N)c1ccc(C(=O)Nc2ccnc3[nH]ccc23)cc1 + CC(C)C[C@H](NC(=O)[C@H](Cc1ccccc1)NC(=O)c1cnccn1)B(O)O [Bortezomib] (partner 0.002 µM)
In short: as §1

[4] = compound: C[C@@H](N)c1ccc(C(=O)Nc2ccnc3[nH]ccc23)cc1 + CCNC(=O)c1noc(-c2cc(C(C)C)c(O)cc2O)c1-c1ccc(CN2CCOCC2)cc1 [Luminespib] (partner 0.01 µM)
In short: as §1

Cell Line	relative viability ([1]; first compound 0.08 µM)	relative viability ([1]; first compound 0.253 µM)	relative viability ([1]; first compound 0.8 µM)	relative viability ([1]; first compound 2.53 µM)	relative viability ([1]; first compound 8 µM)	relative viability ([2]; first compound 0.08 µM)	relative viability ([2]; first compound 0.8 µM)	relative viability ([2]; first compound 2.53 µM)	relative viability ([2]; first compound 8 µM)	relative viability ([3]; first compound 0.04 µM)	relative viability ([3]; first compound 0.1265 µM)	relative viability ([3]; first compound 0.4 µM)	relative viability ([3]; first compound 1.265 µM)	relative viability ([3]; first compound 4 µM)	relative viability ([4]; first compound 0.04 µM)	relative viability ([4]; first compound 0.1265 µM)	relative viability ([4]; first compound 0.4 µM)	relative viability ([4]; first compound 1.265 µM)	relative viability ([4]; first compound 4 µM)
201T	1.09	1.06	1.06	1.03	1.05	0.349	0.384	0.332	0.352	1.09	1.08	1.11	1.17	1.25	1.02	1.02	1.08	1.14	1.14
A-427	0.941	0.893	0.942	0.972	1.07	0.967	0.996	0.982	0.94	0.985	1.06	0.984		0.764	0.79	0.898	0.976		0.804
ABC-1	0.777	0.428	0.518	0.735	0.944					0.289	0.308	0.333	0.272	0.319	1	0.678	0.529	0.553	0.811
BEN	0.352	0.77	0.814	0.382	0.209	0.788	0.638	0.793	0.933	0.765	0.736	0.875	0.909	0.457	0.369	0.332	0.44	0.29	0.286
CAL-12T	0.383	0.409	0.376	0.731	0.247	1.22	1.32	1.21	1.09	1.09	1.07	1.2		1.04	0.297	0.421	0.322	0.432	0.22
COR-L23	0.588	0.579	0.669	0.706	0.639	0.192	0.212	0.193	0.192	0.827	0.983	1.03	0.779	0.341	0.788	0.804	0.644	0.437	0.161
COR-L 105	0.795	0.754	0.651	0.986	0.69	1.19	1.19	1.12	1.06	0.826	0.732	0.791	0.469	0.649	0.733	0.635	0.596	0.559	0.346
Calu-6										0.99	1.1	0.911	0.886	0.886					
ChaGo-K-1	0.573	0.406	0.552	0.589	0.648	0.262	0.261	0.269	0.298	1.01	1.07	1		0.734	0.554	0.641	0.629	0.562	0.436
EBC-1										0.573	0.662	0.558	0.444	0.487					
EKVX	0.974	0.882	0.801	0.833	0.825	0.423		0.427	0.404	1.08	1	1.39	0.992	0.971	0.943	0.987	1.08	0.879	0.942
EMC-BAC-2	1.24	1.07	1.23	1.16	1.14	0.464	0.448	0.435	0.439	0.882	1.21	1.19	1.08	0.968	1.15	1.22	1.25	1.09	1.04
EPLC-272H	0.251	0.206	0.519	0.921	0.408	0.298	0.317	0.38	0.412	1.13	0.987	1.09		0.977	0.402	0.602	0.188	0.491	0.405
H3255	0.818	0.929	1.02	0.846	0.773	0.578	0.629	0.638	0.623	0.827	0.86	0.895	0.955	0.657	0.778	1.04	1	0.763	0.944
HARA	0.856	0.907	1.06	0.79	0.686	0.238	0.236	0.228	0.159	1.24	1.26	1.22	1.17	1.14		0.738	0.675		0.608
HCC-15	0.504	0.193	0.357	0.406	0.453	0.221	0.229	0.234	0.211	1.11	1.02	1.05		0.93	0.391	0.329	0.291		0.153

From the supplement of paper PMC10307832
